US6933319B2, “Resorcinol derivatives” (Pfizer Inc., priority 1999, dated 2005)
pIC50: −log10 of the molar value.

Target: T1, human tyrosinase (Homo sapiens, UniProt P14679)
T1 construct: endogenous in cells; host or cells: SKMEL 188 human melanoma cell line (lysate)
T1 sequence (P14679 19-529): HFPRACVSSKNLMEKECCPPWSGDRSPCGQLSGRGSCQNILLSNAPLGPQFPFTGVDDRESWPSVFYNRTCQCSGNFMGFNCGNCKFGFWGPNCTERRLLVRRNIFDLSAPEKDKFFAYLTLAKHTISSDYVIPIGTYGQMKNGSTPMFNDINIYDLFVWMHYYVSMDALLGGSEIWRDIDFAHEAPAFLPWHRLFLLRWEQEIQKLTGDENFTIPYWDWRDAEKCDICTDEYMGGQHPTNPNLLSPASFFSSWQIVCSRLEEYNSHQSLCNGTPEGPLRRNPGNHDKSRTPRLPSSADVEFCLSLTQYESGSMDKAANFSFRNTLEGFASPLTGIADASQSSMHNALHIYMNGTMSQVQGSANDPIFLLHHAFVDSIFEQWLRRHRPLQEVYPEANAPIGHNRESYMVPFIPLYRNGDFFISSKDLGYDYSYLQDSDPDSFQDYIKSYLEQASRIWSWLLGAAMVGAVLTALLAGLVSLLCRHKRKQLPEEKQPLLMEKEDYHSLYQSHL
Experiment: Tyrosinase (DOPA Oxidase) Assay Using Cell Lysate
Type: biochemical
Details: SKMEL 188 human melanoma cell lysate; L-DOPA 100 μg/ml; incubated 8 hrs; read at 405 nm
Method: 1. Tyrosinase (DOPA Oxidase) Assay Using Cell Lysate:
Human melanoma cell line, SKMEL 188 (licensed from Memorial Sloan-Kettering), is used in the cell lysate assay and the screen. In the assay, compounds and L-dihydroxyphenylalanine (L-DOPA) (100 μg/ml) are incubated with the cell lysates containing human tyrosinase for 8 hrs before the plates are read at 405 nm. Potency of the compounds in DOPA oxidase assay is correlated very well with that in tyrosine hydroxylase assay using ^3H-tyrosine as a substrate.

pIC50: ~5.70
SMILES: ON=C1CCC(c2ccc(O)cc2O)C1 (racemic) [Example 23, (±)-3-(2,4-Dihydroxyphenyl)cyclopentanone oxime]
